Data published in US9403877B2, “Peptide agents for cancer therapy” (INTER-K PTY LIMITED, priority 2012, dated 2016).
“Also recorded” adds a separate entry of the source. Where no end group is shown, it is not given here. The star is where a group is joined. FITC = O=C1OC2(c3ccc(O)cc3Oc3cc(O)ccc32)c2ccc(NC(=S)*)cc21

Tests used:
[1] = test system: HT29 colon cancer cells; test: In vitro growth inhibition MTT assay, HT29; assay type: cell-based, human; conditions: for Inhibition of HT29 cell growth/proliferation (MTT), in words: serum-free medium, 72 hours, peptide 50 nM-100 μM, compared with RSKAKNPLYR or 10Ala
Description: (§1) The human colon cancer cell line HT29, ovarian cancer cell line A2780, breast cancer cell lines MCF-7 and MDA468, and a prostate cancer cell line (DU145) were used for in vitro studies. The cell lines were cultured at 37° C., under air containing 5% CO2 and passaged regularly for optimal growth. Cells were maintained in DMEM medium containing 10% fetal bovine serum. All culture medium preparations were further supplemented with penicillin/streptomycin (100 μg/ml), and
(§2) 1.2 In Vitro Growth Inhibition MTT Assay
Cells in logarithmic growth were transferred to 96-well plates in 100 μl of serum-containing medium at a density of 4000 cells per well. […] […] Growth-inhibitory effects were evaluated by MTT (3-[4,5-dimethylthiazol-2-yl]2,5-diphenyl-tetrazolium bromide) cell growth assay and absorbance was read at 540 nm. Growth of control cells was exponential during the whole incubation period. Mean surviving fractions±SEM values (minimum of 3 separate experiments) were determined for each peptide/cisplatin concentration.

[2] = test system: colon cancer cells; conditions: PCT/AU2010/000203; cited from earlier work
[3] = test system: HT29 colon cancer cells; conditions: in vitro in the presence of serum, Agrez et al., 2011; cited from earlier work
[4] = test system: ovarian (A2780) cancer cell line; test: In vitro growth inhibition MTT assay, A2780, serum-free; assay type: cell-based, human; conditions: 72 hours
Description: as §1, §2
(§3) Cells in logarithmic growth were transferred to 96-well plates in 100 μl of serum-containing medium at a density of 4000 cells per well. After 24 hours the previously added serum-containing medium was removed and 200 μl serum free medium (SFM) with or without peptide was added to each of triplicate wells. Drug exposure experiments were carried out on cell lines using varying concentrations of peptides (50 nM-100 μM) and cells were exposed to peptides for 72 hours in serum-free culture medium. Growth-inhibitory effects were evaluated by MTT (3-[4,5-dimethylthiazol-2-yl]2,5-diphenyl-tetrazolium bromide) cell growth assay and absorbance was read at 540 nm. Growth of control cells was exponential during the whole incubation period. Mean surviving fractions±SEM values (minimum of 3 separate experiments) were determined for each peptide/cisplatin concentration.

[5] = test system: breast (MCF-7) cancer cell line; test: In vitro growth inhibition MTT assay, MCF-7, serum-free; assay type: cell-based, human; conditions: 72 hours
Description: as §1, §2, §3

[6] = test system: prostate (DU145) cancer cell line; test: In vitro growth inhibition MTT assay, DU145, serum-free; assay type: cell-based, human; conditions: 72 hours
Description: as §1, §2, §3

[7] = test system: DU145 prostate cancer cells; test: Modified MTT assay, DU145, 5% serum, 48 hours; assay type: cell-based, human; conditions: for Growth inhibition of DU145 prostate cancer cells: 5% serum, 48 hours, concentrations of 0.5 μM or greater
Description: as §3
(§4) The growth inhibitory activity of various concentrations of the 10 RVK peptide (RVKVKVVVVR) (SEQ ID No. 24) with an 8 mer polyarginine sequence coupled to its C-terminal end (i.e., RVKVKVVVVRRRRRRRRR (SEQ ID No. 26), referred to herein as 10 RVK Arg) on MDA468 breast cancer cells was assessed by a modified form of the MTT assay described in Example 1.2 in which 3000 cells per well were cultured for 48 hours in culture medium containing 5% serum. For the negative control, an 8 mer polyargine peptide (8 Arg) was used. The results shown in FIG. 10 are the average of 3 replicate wells for each dosage.
(§5) The growth inhibitory activity of various concentrations of the 10 RVK Arg peptide on MDA468 breast cancer and DU145 prostate cancer cells was assessed by MTT assay involving incubating the cells in 5% serum containing medium for 48 hours as described in Example 2. As a comparison, inhibition of the growth of the cells by the 10 RVK peptide with a 7 mer polyarginine sequence coupled to its C-terminal end (i.e., RVKVKVVVVRRRRRRRR (SEQ ID No. 27), referred to herein as 10 RVK 7 Arg) and the 10 RVK peptide with an 8 mer polyargine sequence coupled to its N-terminal end (i.e., RRRRRRRRRVKVKVVVVR (SEQ ID No. 28), referred to herein as Arg 10 RVK) were also assessed. The results for inhibition of the breast cancer cells are shown in FIG. 11 while the results for treatment of the prostate cancer cells are shown in FIG. 12.

[8] = test system: MDA468 breast cancer cells; test: Modified MTT assay, MDA468, 5% serum, 48 hours; assay type: cell-based, human; conditions: for Growth inhibition of MDA468 breast cancer cells: concentrations of 0.5 μM or greater
Description: as §3, §4, §5

[9] = test system: HT29 cells; test: Uptake of FITC-labelled peptide by confocal microscopy; assay type: cell-based, human; conditions: serum-free culture, after 24 hours, compared to FITC alone
Description: The ability of 10 Ala to cross the plasma membrane of HT29 cells was assessed by means of confocal microscopy of cells exposed to 10Ala conjugated to fluorosceine isothiocyanate (FITC) under serum-free culture conditions. The peptide used in this study comprised the sequence KRAKAKAAAAR (SEQ ID No. 25) (identified as FITC-K10(4)Ala) with an extra lysine residue at the amino terminus (to which the FITC label is attached). […] A microphotograph showing localization of the FITC-labelled peptide to the cytoplasm of cells compared to cells treated with FITC alone is shown in FIG. 9.

For “RSKAKNPLAR (A short variant peptide of sequence 2)”, the “Inhibition of HT29 cell growth/proliferation (MTT), in words” value [1] was “not seen”.

For “RAKAKAAAAAR (variant peptide of 10Ala having 5 alanine residues between the lysine and the C-terminal arginine)”, the “Inhibition of HT29 cell growth/proliferation (MTT), in words” value [1] was “significantly less effective at inhibiting growth”.

In the case of “RSRARNPLYR (10 mer peptide from B5 integrin cytoplasmic domain) [10 mer peptide derived from the β5 integrin cytoplasmic domain]”, the “Inhibition of proliferation of colon cancer cells in vitro (previously reported)” value (shortened to “Inhibition … (previously reported)”) [2] is given as “effective at inhibiting proliferation”.

In the case of “RAKARAAAAK (10Ala peptide wherein the position of one or both arginine and lysine residues have been inverted)”, the “Inhibition of HT29 cell growth/proliferation (MTT), in words” value [1] is reported as “significantly reduced the ability of the peptides to inhibit cell growth”.

For “RSKAKNPLYR (Non naturally occurring peptide derived from the B6 binding sequence)”, the “Growth inhibitory effect in the presence of serum (previously shown)” value [3] is given as “adversely affected”.

For RAKAK (shorter variant of 10Ala), the “Inhibition of HT29 cell growth/proliferation (MTT), in words” value [1] was “minimal effect”.

In the case of RAKAKAAAAR (B6 derived peptide), the “Inhibition of A2780 cell growth” value [4] is reported as “equally effective”, the “Inhibition of MCF-7 cell growth” value [5] is reported as “equally effective” and the “Growth inhibitory effect in serum-containing medium” value ([1]; serum-containing medium, data not shown) is reported as “adversely affected”. The “Inhibition of HT29 cell growth/proliferation (MTT), in words” value [1] was “ability of both peptides to inhibit cell growth was similar”, the “Inhibition of HT29 cell growth/proliferation (MTT), in words” value ([1]; listed as 10Ala) was “significantly more effective at inhibiting cell proliferation” and the “Inhibition of DU145 cell growth” value [6] was “equally effective”.

In the case of “RSKAKR (SHORT VARIANT OF THE PEPTIDE FROM SEQUENCE 2)”, the “Inhibition of HT29 cell growth/proliferation (MTT), in words” value [1] is reported as “failed to inhibit proliferation”.

For “RVKVKVVVVRRRRRRRR (10RVK peptide with a 7 mer polyarginine sequence coupled to its C-terminal end) [10 RVK 7 Arg]”, the “Growth inhibition of DU145 prostate cancer cells” value [7] was “markedly inhibited growth” and the “Growth inhibition of MDA468 breast cancer cells” value ([8]; 5% serum, 48 hours) was “markedly inhibited growth”.

In the case of “RKRK (A scrambled version of the charged residues RKKR)”, the “Inhibition of HT29 cell growth/proliferation (MTT), in words” value [1] is reported as “significantly less effective at inhibiting growth of the cells”.

In the case of “KEKLKNPLFK (10-mer peptide from B2 integrin cytoplasmic domains) [10 mer peptide derived from the β2 integrin cytoplasmic domain]”, the “Inhibition … (previously reported)” value [2] is given as “effective at inhibiting proliferation”.

In the case of RAKAKAAAR (short variant of 10Ala), the “Inhibition of HT29 cell growth/proliferation (MTT), in words” value [1] is reported as “minimal effect; also recorded: significantly less effective at inhibiting growth”.

In the case of “RVKVKVVVVRRRRRRRRR (8 mer polyarginine sequence couple to the C-terminal end of 10 RVK peptide) [10 RVK Arg]”, the “Growth inhibitory activity on DU145 compared to 10 RVK with penetratin coupled to its N-terminal” value ([7]; 10 μM to 50 μM, results not shown) is reported as “enhanced cell growth inhibitory activity”, the “Growth inhibition of DU145 prostate cancer cells” value [7] is reported as “markedly inhibited growth” and the “Growth inhibitory activity on MDA468 compared to 10 RVK with penetratin coupled to its N-terminal” value ([8]; 5 μM to 10 μM, results not shown) is reported as “enhanced cell growth inhibitory activity”. For the same substance, the “Growth inhibition of MDA468 cells” value ([8]; 5% serum, 48 hours, concentration 5 μM to 50 μM) was “totally inhibited growth” and the “Growth inhibition of MDA468 breast cancer cells” value ([8]; 5% serum, 48 hours) was “markedly inhibited growth”.

With “KARARAAAAK (10Ala peptide in which the positions of one or both arginine and lysine residues have been inverted)” the “Inhibition of HT29 cell growth/proliferation (MTT), in words” value [1] was “significantly reduced the ability of the peptides to inhibit cell growth”.

With “RAAKAARAAK (Scrambled peptide with Alanine in the place of all non-charged residues in peptide of sequence 2.) [scrambled alanine-substituted peptide]” the “Inhibition of HT29 cell growth/proliferation (MTT), in words” value [1] was “ineffective”.

In the case of “RRRRRRRRRVKVKVVVVR (10 RVK peptide with an 8 mer polyargine sequence coupled ot its N-terminal end) [Arg 10 RVK]”, the “Growth inhibition of DU145 prostate cancer cells” value [7] is reported as “markedly inhibited growth” and the “Growth inhibition of MDA468 breast cancer cells” value ([8]; 5% serum, 48 hours) is reported as “markedly inhibited growth”.

For “RARAKNPLYK (10 mer peptide from B3 integrin cytoplasmic domain) [10 mer peptide derived from the β3 integrin cytoplasmic domain]”, the “Inhibition … (previously reported)” value [2] is given as “effective at inhibiting proliferation”.

For “FITC-KRAKAKAAAAR ({FITC}-KRAKAKAAAAR) [FITC-K10(4)Ala]”, the “Internalization / localization of FITC-labelled peptide in cells” value [9] was “cytoplasmic localization of peptide”.

For “RSKAKNALYR (short variant of sequence 2, scrambled)”, the “Inhibition of HT29 cell growth/proliferation (MTT), in words” value [1] was “not seen”.

For “RKKR (Charged residues for growth inhibitory effect)”, the “Inhibition of HT29 cell growth/proliferation (MTT), in words” value [1] was “not sufficient to inhibit cancer cell proliferation in vitro to the same degree”.
